The values that follow come from patent publication US20120083522A1, “MODULATION OF INFLAMMATORY RESPONSES BY FACTOR XI” (Isis Pharmaceuitcals, inc., priority 2009, published 2012).

In the oligonucleotide strings, read from the 5' end, every base follows the letter of its sugar. An asterisk marks phosphorothioate; unmarked linkages are phosphodiester. Other units and linkages are bracketed, terminal groups are in braces. A string of capitals states the bases alone. e = 2'-O-(2-methoxyethyl) (MOE); [5mC] = 5-methylcytosine; d = 2'-deoxy (DNA)

Holding throughout (assay type): cell-based
The test system of data set [1] is human Factor XI mRNA. Put plainly: Antisense inhibition in HepG2 cells by microwalk gapmers, 75 nM, lipofectin (Example 3). The settings on record: HepG2 cells, 75 nM. The method, then: These gapmers were designed by creating gapmers shifted slightly upstream and downstream (i.e. “microwalk”) of the original gapmers from Table 3. Gapmers were also created with various motifs, e.g. 5-10-5 MOE, 3-14-3 MOE, and 2-13-5 MOE. These gapmers were tested in vitro. Cultured HepG2 cells at a density of 10,000 cells per well were transfected using lipofectin reagent with 75 nM antisense oligonucleotide. After a treatment period of approximately 24 hours, RNA was isolated from the cells and Factor XI mRNA levels were measured by quantitative real-time PCR. Factor XI mRNA levels were adjusted according to total RNA content, as measured by RIBOGREEN®. Results are presented as percent inhibition of Factor XI, relative to untreated control cells.
The chimeric antisense oligonucleotides in Table 4 were designed as 5-10-5 MOE, 3-14-3 MOE, and 2-13-5 MOE gapmers. The first listed gapmers in Table 4 are the original gapmers (see Table 3) from which the remaining gapmers were designed via microwalk and are designated by an asterisk. The 5-10-5 gapmers are 20 nucleotides in length, wherein the central gap segment is comprised of 10 2′-deoxynucleotides and is flanked on both sides (in the 5′ and 3′ directions) by wings comprising 5 nucleotides each. The 3-14-3 gapmers are 20 nucleotides in length, wherein the central gap segment is comprised of 14 2′-deoxynucleotides and is flanked on both sides (in the 5′ and 3′ directions) by wings comprising 3 nucleotides each. The 2-13-5 gapmers are 20 nucleotides in length, wherein the central gap segment is comprised of 13 2′-deoxynucleotides. The central gap is flanked on the 5′ end with a wing comprising 2 nucleotides and on the 3′ end with a wing comprising 5 nucleotides. For each of the motifs (5-10-5, 3-14-3, and 2-13-5), each nucleotide in the 5′ wing segment and each nucleotide in the 3′ wing segment has a 2′-MOE modification. The internucleoside linkages throughout each gapmer are phosphorothioate (P═S) linkages. All cytidine residues throughout each gapmer are 5-methylcytidines. “Target start site” indicates the 5′-most nucleotide to which the gapmer is targeted. “Target stop site” indicates the 3′-most nucleotide to which the gapmer is targeted. Each gapmer listed in Table 4 is targeted to SEQ ID NO: 1 (GENBANK Accession No. NM_000128.3).

In data set [2] the test system is human Factor XI mRNA. Put plainly: Dose-dependent inhibition in HepG2 cells, electroporation (Example 4). The settings on record: 16 hours. The method, then: (§1) The gapmers were also transfected via electroporation and their dose dependent inhibition of human Factor XI mRNA was measured. Cells were plated at a density of 20,000 cells per well and transfected via electroporation with 0.7 μM, 2.2 μM, 6.7 μM, and 20 μM concentrations of antisense oligonucleotide, as specified in Table 10. After a treatment period of approximately 16 hours, RNA was isolated from the cells and Factor XI mRNA levels were measured by quantitative real-time PCR. Human Factor XI primer probe set RTS 2966 was used to measure mRNA levels. Factor XI mRNA levels were adjusted according to total RNA content, as measured by RIBOGREEN®. Results are presented as percent inhibition of Factor XI, relative to untreated control cells.

Data set [3] concerns human Factor XI mRNA. Put plainly: Dose-dependent inhibition in HepG2 cells, lipofectin (Example 4). The settings on record: 16 hours. The method, then:
as §1, with “Cells” for “The gapmers were also transfected via electroporation and their dose dependent inhibition of human Factor XI mRNA was measured. Cells”, “10,000” for “20,000”, “using lipofectin reagent” for “via electroporation”, “9.375 nM, 18.75 nM, 37.5 nM” for “0.7 μM, 2.2 μM, 6.7 μM,”, “75 nM” for “20 μM”, “9.” for “10.”

[4] abbreviates: oligonucleotides targeted to nucleobases 738 to 762 of SEQ ID NO: 1.
Setting [5] is: oligonucleotides targeted to nucleobases 1018 to 1042 of SEQ ID NO: 1.

With “412215 (antisense eA*eT*eT*e[5mC]*eT*dT*dT*dG*dG*dG*d[5mC]*d[5mC]*dA*dT*dT*e[5mC]*e[5mC]*eT*eG*eG) [compound 412215]”, the “% inhibition of human Factor XI mRNA levels” value (“% inhibition” for short) with human Factor XI mRNA [1] (oligonucleotides targeted to nucleobases 1062 to 1091 of SEQ ID NO: 1) was determined as 82%.
For “416827 (antisense eT*eA*eT*eG*e[5mC]*d[5mC]*d[5mC]*dT*dT*d[5mC]*dA*dT*dG*dT*d[5mC]*eT*eA*eG*eG*eT) [compound 416827]”, the “percent inhibition of Factor XI mRNA, relative to untreated control cells” value with human Factor XI mRNA [2] (0.7 μM) stood at 37%; in the data set with human Factor XI mRNA [2] (2.2 μM) it was 68%; with human Factor XI mRNA [2] (6.7 μM) it was 87%; with human Factor XI mRNA [2] (20 μM), 92%; with human Factor XI mRNA [3] (9.375 nM), 31%; with human Factor XI mRNA [3] (18.75 nM), 42%. Besides, the “percent inhibition of Factor XI mRNA, relative to untreated control cells” value in the data set with human Factor XI mRNA [3] (37.5 nM) is on record as 62%; in the data set on human Factor XI mRNA [3] (75 nM), 77%.
For “416830 (antisense eT*e[5mC]*e[5mC]*eG*eT*dG*d[5mC]*dA*dT*d[5mC]*dT*dT*dT*d[5mC]*dT*eT*eG*eG*e[5mC]*eA) [compound 416830]”, the “% inhibition” value in the data set on human Factor XI mRNA [1] (setting [4]) was determined as 81%.
In the case of “416831 (antisense eA*eT*e[5mC]*e[5mC]*eG*dT*dG*d[5mC]*dA*dT*d[5mC]*dT*dT*dT*d[5mC]*eT*eT*eG*eG*e[5mC]) [compound 416831]”, the “% inhibition” value in the data set with human Factor XI mRNA [1] (setting [4]) is 91%.
Same read-out and setting: the result for “416832 (antisense e[5mC]*eA*eT*e[5mC]*e[5mC]*dG*dT*dG*d[5mC]*dA*dT*d[5mC]*dT*dT*dT*e[5mC]*eT*eT*eG*eG) [compound 416832]” reads 79%; that for “416833 (antisense eT*e[5mC]*eA*eT*e[5mC]*d[5mC]*dG*dT*dG*d[5mC]*dA*dT*d[5mC]*dT*dT*eT*e[5mC]*eT*eT*eG) [compound 416833]”, 65%.
“416834 (antisense eG*eT*e[5mC]*eA*eT*d[5mC]*d[5mC]*dG*dT*dG*d[5mC]*dA*dT*d[5mC]*dT*eT*eT*e[5mC]*eT*eT) [compound 416834]”: the “% inhibition” value in the data set on human Factor XI mRNA [1] (setting [4]) is 58%.
With “416835 (antisense eA*e[5mC]*e[5mC]*eG*eG*dG*dA*dT*dG*dA*dT*dG*dA*dG*dT*eG*e[5mC]*eA*eG*eA) [compound 416835]”, in the data set with human Factor XI mRNA [1] (setting [5]), the “% inhibition” value came to 83%.
For the substance “416836 (antisense eA*eA*e[5mC]*e[5mC]*eG*dG*dG*dA*dT*dG*dA*dT*dG*dA*dG*eT*eG*e[5mC]*eA*eG) [compound 416836]”, the “% inhibition” value with human Factor XI mRNA [1] (setting [5]) turned out to be 89%.
On to “416837 (antisense e[5mC]*eA*eA*e[5mC]*e[5mC]*dG*dG*dG*dA*dT*dG*dA*dT*dG*dA*eG*eT*eG*e[5mC]*eA) [compound 416837]”, for which the “% inhibition” value with human Factor XI mRNA [1] (setting [5]) was 90%.
“416895 (antisense eT*eA*eT*dG*d[5mC]*d[5mC]*d[5mC]*dT*dT*d[5mC]*dA*dT*dG*dT*d[5mC]*dT*dA*eG*eG*eT) [compound 416895]”: the “percent inhibition of Factor XI mRNA, relative to untreated control cells” value amounted to 0% with human Factor XI mRNA [2] (0.7 μM); 62% in the data set with human Factor XI mRNA [2] (2.2 μM); 70% in the data set with human Factor XI mRNA [2] (6.7 μM); 91% in the data set on human Factor XI mRNA [2] (20 μM); 39% with human Factor XI mRNA [3] (9.375 nM); 57% with human Factor XI mRNA [3] (18.75 nM). In addition, the “percent inhibition of Factor XI mRNA, relative to untreated control cells” value in the data set with human Factor XI mRNA [3] (37.5 nM) was 66%; in the data set on human Factor XI mRNA [3] (75 nM), 71%.
In the case of “416896 (antisense eT*eT*eA*dT*dG*d[5mC]*d[5mC]*d[5mC]*dT*dT*d[5mC]*dA*dT*dG*dT*d[5mC]*dT*eA*eG*eG) [compound 416896]”, the “percent inhibition of Factor XI mRNA, relative to untreated control cells” value in the data set on human Factor XI mRNA [2] (0.7 μM) is given as 12%; in the data set with human Factor XI mRNA [2] (2.2 μM), 35%; in the data set with human Factor XI mRNA [2] (6.7 μM), 81%; in the data set on human Factor XI mRNA [2] (20 μM), 89%; in the data set with human Factor XI mRNA [3] (9.375 nM) it was 22%; with human Factor XI mRNA [3] (18.75 nM) it was 39%. The “percent inhibition of Factor XI mRNA, relative to untreated control cells” value is 57% in the data set with human Factor XI mRNA [3] (37.5 nM) and 81% in the data set on human Factor XI mRNA [3] (75 nM).
Take “416945 (antisense eA*eA*dT*dG*dT*d[5mC]*dT*dT*dT*dG*dT*dT*dG*d[5mC]*dA*eA*eG*e[5mC]*eG*e[5mC]) [compound 416945]”: the “percent inhibition of Factor XI mRNA, relative to untreated control cells” value is listed as 48% in the data set on human Factor XI mRNA [2] (0.7 μM); 70% with human Factor XI mRNA [2] (2.2 μM); 81% in the data set on human Factor XI mRNA [2] (6.7 μM); 88% with human Factor XI mRNA [2] (20 μM); 34% in the data set with human Factor XI mRNA [3] (9.375 nM); 45% in the data set on human Factor XI mRNA [3] (18.75 nM). For the same substance, the “percent inhibition of Factor XI mRNA, relative to untreated control cells” value in the data set on human Factor XI mRNA [3] (37.5 nM) worked out at 62%; in the data set on human Factor XI mRNA [3] (75 nM), 65%.
With “416969 (antisense eG*e[5mC]*d[5mC]*d[5mC]*dT*dT*d[5mC]*dA*dT*dG*dT*d[5mC]*dT*dA*dG*eG*eT*e[5mC]*e[5mC]*eA) [compound 416969]”, the “percent inhibition of Factor XI mRNA, relative to untreated control cells” value in the data set on human Factor XI mRNA [2] (0.7 μM) is reported as 25%; in the data set with human Factor XI mRNA [2] (2.2 μM), 34%; with human Factor XI mRNA [2] (6.7 μM) it was 86%; in the data set with human Factor XI mRNA [2] (20 μM), 92%; in the data set with human Factor XI mRNA [3] (9.375 nM) it was 17%; in the data set on human Factor XI mRNA [3] (18.75 nM), 39%. In addition, the “percent inhibition of Factor XI mRNA, relative to untreated control cells” value stood at 61% in the data set with human Factor XI mRNA [3] (37.5 nM) and 76% with human Factor XI mRNA [3] (75 nM).
For “416972 (antisense eT*eA*dT*dG*d[5mC]*d[5mC]*d[5mC]*dT*dT*d[5mC]*dA*dT*dG*dT*d[5mC]*eT*eA*eG*eG*eT) [compound 416972]”, the “percent inhibition of Factor XI mRNA, relative to untreated control cells” value with human Factor XI mRNA [2] (0.7 μM) amounted to 25%; in the data set on human Factor XI mRNA [2] (2.2 μM) it was 30%; with human Factor XI mRNA [2] (6.7 μM) it was 48%; in the data set with human Factor XI mRNA [2] (20 μM), 88%; with human Factor XI mRNA [3] (9.375 nM) it was 32%; with human Factor XI mRNA [3] (18.75 nM) it was 40%. For the same substance, the “percent inhibition of Factor XI mRNA, relative to untreated control cells” value with human Factor XI mRNA [3] (37.5 nM) came out at 60%; with human Factor XI mRNA [3] (75 nM), 69%.
As for “416973 (antisense eT*eT*dA*dT*dG*d[5mC]*d[5mC]*d[5mC]*dT*dT*d[5mC]*dA*dT*dG*dT*e[5mC]*eT*eA*eG*eG) [compound 416973]”, the “percent inhibition of Factor XI mRNA, relative to untreated control cells” value is on record as 20% in the data set with human Factor XI mRNA [2] (0.7 μM); 48% with human Factor XI mRNA [2] (2.2 μM); 86% with human Factor XI mRNA [2] (6.7 μM); 93% with human Factor XI mRNA [2] (20 μM); 60% with human Factor XI mRNA [3] (9.375 nM); 75% in the data set on human Factor XI mRNA [3] (18.75 nM). Besides, the “percent inhibition of Factor XI mRNA, relative to untreated control cells” value is given as 85% in the data set with human Factor XI mRNA [3] (37.5 nM) and 87% in the data set on human Factor XI mRNA [3] (75 nM).
